Data set [1] concerns mustard beetle (Phaedon cochleariae). As to the kind of experiment: Phaedon test (PHAECO spray treatment), Example 7. It is filed as in vivo. Conditions: application rate 20 g/ha, china cabbage leaf discs sprayed, after 7 days. How it is done:
Phaedon Test (PHAECO Spray Treatment)
(§1) • Solvent: 78.0 parts by weight of acetone • 1.5 parts by weight of dimethylformamide • Emulsifier: 0.5 part by weight of alkylaryl polyglycol ether
To prepare an active ingredient formulation, 1 part by weight of active ingredient is mixed with the stated amounts of solvent and emulsifier, and the concentrate is diluted with emulsifier-containing water to the desired concentration. Leaf discs from china cabbage (Brassica pekinensis) are sprayed with an active ingredient formulation of the desired concentration and, after drying, populated with larvae of the mustard beetle (Phaedon cochleariae).
After 7 days, the efficacy in % is determined. 100% means that all beetle larvae were killed; 0% means that no beetle larvae were killed.

Data set [2] in a line: logP by HPLC on reverse-phase column (EEC Directive 79/831 Annex V.A8). Type of data set: physicochemical. How it is done:
The logP values reported in the above Tables and Preparation Examples were determined according to EEC Directive 79/831 Annex V.A8 by HPLC (High Performance Liquid Chromatography) on a reverse-phase column (C18). Temperature 43° C.

The test system of another data set is Boophilus microplus. As to the kind of experiment: Boophilus microplus test (BOOPMI injection), Example 11. Type of data set: in vivo. Conditions: application rate 20 μg/animal, injected into abdomen, after 7 days. How it is done: Boophilus microplus Test (BOOPMI Injection) • Solvent: dimethyl sulphoxide To prepare an appropriate active ingredient formulation, 10 mg of active ingredient are mixed with 0.5 ml of solvent and the concentrate is diluted with solvent to the desired concentration. The active ingredient solution is injected into the abdomen (Boophilus microplus), and the animals are transferred to dishes and stored in a climate-controlled room. The efficacy was assessed by the number of fertile eggs laid. After 7 days, the efficacy in % is determined. 100% means that none of the ticks has laid any fertile eggs.

Data set [3] relates to armyworm (Spodoptera frugiperda). As to the kind of experiment: Spodoptera frugiperda test (SPODFR spray treatment), Example 15. It is filed as in vivo. Conditions: application rate 100 g/ha, maize leaf discs sprayed, after 7 days. How it is done:
Spodoptera frugiperda Test (SPODFR Spray Treatment)
as §1
To prepare an appropriate active ingredient formulation, 1 part by weight of active ingredient is mixed with the stated amounts of solvent and emulsifier, and the concentrate is diluted with emulsifier-containing water to the desired concentration. Leaf discs from maize (Zea mays) are sprayed with an active ingredient formulation of the desired concentration and, after drying, populated with caterpillars of the armyworm (Spodoptera frugiperda).
After 7 days, the efficacy in % is determined. 100% means that all caterpillars were killed; 0% means that no caterpillars were killed.

Setting [4] is: HPLC, C18 reverse phase, 43° C., acidic range pH 2.7, calibration with alkan-2-ones.

Compound `O=C(NC(c1cc(Cl)cc(Cl)c1)C(F)(F)F)c1cc2ccc(C(=O)NC3CC3)c(Cl)c2[nH]1` (racemic) [Ic-22] returned an efficacy in % in data set [1] of 100%. Further, in data set [2] (setting [4]), the logP result is “HPLC-MS: logP = 3.42; mass”.
On to `O=C(NC(c1cccc(C(F)(F)F)c1)C(F)(F)F)c1cc2cc(C(=O)NCc3ccccn3)c(Cl)cc2[nH]1` (racemic) [Ic-23], for which the efficacy in % in data set [1] amounted to 100%. Also, the logP result in data set [2] (setting [4]) is listed as “HPLC-MS: logP = 2.49; mass”.
In turn, `O=C(/C=C/c1ccc(C(=O)NC2CC2)c(C(F)(F)F)c1)NC(c1ccc(Cl)c(Cl)c1)C(F)(F)F` (stereo not shown) [Ia-37] registered an efficacy in % in data set [1] of 100%. Further, the logP result in data set [2] (HPLC-MS) is recorded as “HPLC-MS: logP = 3.41; mass”.
On to `O=C(/C=C/c1ccc(C(=O)NC2CC2c2ccccc2)c(C(F)(F)F)c1)NC(c1cccc(C(F)(F)F)c1)C(F)(F)F` (stereo not shown) [Ia-71], for which, in data set [1], the efficacy in % is 100%. In addition, the logP result in data set [2] (HPLC-MS) is reported as “HPLC-MS: logP = 4.22; mass”.
Turning to `Cc1cc(/C=C/C(=O)NC(c2cccc(C(F)(F)F)c2)C(F)(F)F)ccc1C(=O)NC1COC1` (stereo not shown) [Ia-83], the efficacy in % in data set [1] is listed as 100%. Further, the logP result in data set [2] (HPLC-MS) is on record as “HPLC-MS: logP = 2.69 mass”.
The corresponding values for `O=C(/C=C/c1ccc(C(=O)Nc2ccncc2)c(C(F)(F)F)c1)NC(c1cccc(C(F)(F)F)c1)C(F)(F)F` (stereo not shown) [Ia-84] are 100% and “HPLC-MS: logP = 1.99 mass”.
The corresponding values for `Cc1cc(/C=C/C(=O)NC(c2cccc(C(F)(F)F)c2)C(F)(F)F)ccc1C(=O)NC1CCOCC1` (stereo not shown) [Ia-86] are 100% and “HPLC-MS: logP = 2.89 mass”.
On the same counts, the results for `Cc1cc(/C=C/C(=O)NC(c2cccc(C(F)(F)F)c2)C(F)(F)F)ccc1C(=O)NCc1ccc(F)cn1` (stereo not shown) [Ia-87] are 100% and “HPLC-MS: logP = 3.13 mass”.
As for `Cc1cc(/C=C/C(=O)NC(c2cccc(C(F)(F)F)c2)C(F)(F)F)ccc1C(=O)Nc1ccncc1` (stereo not shown) [Ia-88], the efficacy in % in data set [1] is 100%. For the same compound, the logP result in data set [2] (HPLC-MS) was “HPLC-MS: logP = 1.87 mass”.
The corresponding values for `CN(C(=O)c1ccc(/C=C/C(=O)NC(c2cccc(C(F)(F)F)c2)C(F)(F)F)cc1Br)c1ccccn1` (stereo not shown) [Ia-89] are 100% and “HPLC-MS: logP = 3.47 mass”.
The corresponding values for `O=C(/C=C/c1ccc(C(=O)Nc2ccncc2)c(Br)c1)NC(c1cccc(C(F)(F)F)c1)C(F)(F)F` (stereo not shown) [Ia-91] are 100% and “HPLC-MS: logP = 1.96 mass”.
On the same counts, the results for `O=C(/C=C/c1ccc(C(=O)NC2CCOCC2)c(Cl)c1)NC(c1cccc(C(F)(F)F)c1)C(F)(F)F` (stereo not shown) [Ia-97] are 100% and “HPLC-MS: logP = 2.99 mass”.
Compound `O=C(/C=C/c1ccc(C(=O)Nc2ccccn2)c(Cl)c1)NC(c1cccc(C(F)(F)F)c1)C(F)(F)F` (stereo not shown) [Ia-98] displayed an efficacy in % in data set [1] of 100%. The logP result in data set [2] (HPLC-MS) is “HPLC-MS: logP = 3.47 mass”.
`Cc1cc(/C=C/C(=O)NC(c2cccc(C(F)(F)F)c2)C(F)(F)F)ccc1C(=O)NC1CCC1` (stereo not shown) [Ia-101]: the efficacy in % in data set [1] is given as 100%. Also, the logP entry in data set [2] (HPLC-MS) is listed as “HPLC-MS: logP = 3.53 mass”.
On the same counts, the results for `Cc1cc(/C=C/C(=O)NC(c2cccc(C(F)(F)F)c2)C(F)(F)F)ccc1C(=O)NC(C)C` (stereo not shown) [Ia-102] are 100% and “HPLC-MS: logP = 3.27 mass”.
Compound `COC(=O)N(C)NC(=O)c1ccc(/C=C/C(=O)NC(c2cccc(C(F)(F)F)c2)C(F)(F)F)cc1Br` (stereo not shown) [Ia-103] returned an efficacy in % in data set [1] of 100%. Also, the logP result in data set [2] (HPLC-MS) was “HPLC-MS: logP = 2.89 mass”.
The corresponding values for `O=C(/C=C/c1ccc(C(=O)NCC(F)F)c(Br)c1)NC(c1cccc(C(F)(F)F)c1)C(F)(F)F` (stereo not shown) [Ia-104] are 100% and “HPLC-MS: logP = 3.23 mass”.
On the same counts, the results for `C#CCNC(=O)c1ccc(/C=C/C(=O)NC(c2cccc(C(F)(F)F)c2)C(F)(F)F)cc1Br` (stereo not shown) [Ia-105] are 100% and “HPLC-MS: logP = 3.09 mass”.
As to `O=C(/C=C/c1ccc(C(=O)NC2CCCNC2=O)c(Cl)c1)NC(c1cccc(C(F)(F)F)c1)C(F)(F)F` (stereo not shown) [Ia-106], the efficacy in % in data set [1] amounted to 100%. For the same compound, the logP result in data set [2] (HPLC-MS) is “HPLC-MS: logP = 2.61 mass”.
In turn, `O=C(/C=C/c1ccc(C(=O)NCC(=O)NCC(F)(F)F)c(Cl)c1)NC(c1cccc(C(F)(F)F)c1)C(F)(F)F` (stereo not shown) [Ia-107] displayed an efficacy in % in data set [1] of 100%. Also, the logP result in data set [2] (HPLC-MS) was “HPLC-MS: logP = 2.99 mass”.
For `COC(=O)NNC(=O)c1ccc(/C=C/C(=O)NC(c2cccc(C(F)(F)F)c2)C(F)(F)F)cc1Cl` (stereo not shown) [Ia-109], the efficacy in % in data set [1] is recorded as 100%. Besides, in data set [2] (HPLC-MS), the logP result is “HPLC-MS: logP = 2.72 mass”.
Take `O=C(/C=C/c1ccc(C(=O)Nc2cc(Cl)ccn2)c(C(F)(F)F)c1)NC(c1cccc(C(F)(F)F)c1)C(F)(F)F` (stereo not shown) [Ia-121]: in the data set with Boophilus microplus, the “efficacy in % (fertile eggs laid)” value is reported as 100%. The logP result in data set [2] (HPLC-MS) was “HPLC-MS: logP = 4.3; mass”.
As to `Cn1ccc(NC(=O)c2ccc(/C=C/C(=O)NC(c3cccc(C(F)(F)F)c3)C(F)(F)F)cc2C(F)(F)F)n1` (stereo not shown) [Ia-124], the “efficacy in % (fertile eggs laid)” value with Boophilus microplus is given as 100%. In data set [3], the efficacy in % is listed as 100%. Moreover, the logP entry in data set [2] (HPLC-MS) is recorded as “HPLC-MS: logP = 3.28; mass”.
With `O=C(/C=C/c1ccc(C(=O)Nc2ccncn2)c(C(F)(F)F)c1)NC(c1cccc(C(F)(F)F)c1)C(F)(F)F` (stereo not shown) [Ia-125], in the data set on Boophilus microplus, the “efficacy in % (fertile eggs laid)” value was found to be 100%. This compound displayed an efficacy in % in data set [3] of 100%. The logP result in data set [2] (HPLC-MS) is “HPLC-MS: logP = 3.35; mass”.
With `O=C(/C=C/c1ccc(C(=O)NCc2cc(Cl)ccn2)c(C(F)(F)F)c1)NC(c1cccc(C(F)(F)F)c1)C(F)(F)F` (stereo not shown) [Ia-126], the “efficacy in % (fertile eggs laid)” value with Boophilus microplus is listed as 100%. Besides, the logP entry in data set [2] (HPLC-MS) is given as “HPLC-MS: logP = 3.68; mass”.
For the compound `N#CCNC(=O)c1ccc(/C=C/C(=O)NC(c2cccc(C(F)(F)F)c2)C(F)(F)F)cc1C(F)(F)F` (stereo not shown) [Ia-129], the “efficacy in % (fertile eggs laid)” value in the data set with Boophilus microplus was 100%. The same compound displayed an efficacy in % in data set [3] of 100%. The logP result in data set [2] (HPLC-MS) is “HPLC-MS: logP = 3.19; mass”.
On to `O=C(/C=C/c1ccc(-n2cccn2)c(C(F)(F)F)c1)NC(c1cccc(C(F)(F)F)c1)C(F)(F)F` (stereo not shown) [Ia-135], for which the “efficacy in % (fertile eggs laid)” value in the data set with Boophilus microplus is recorded as 100%. Also, in data set [2] (HPLC-MS), the logP entry is “HPLC-MS: logP = 3.95; mass”.
The corresponding values for `CCC(C)NC(=O)c1ccc(/C=C/C(=O)NC(c2cccc(C(F)(F)F)c2)C(F)(F)F)cc1C(F)(F)F` (stereo not shown) [Ia-144] are 100% and “HPLC-MS: logP = 3.84; mass”.
The corresponding values for `O=C(/C=C/c1ccc(C(=O)NCC=CCl)c(C(F)(F)F)c1)NC(c1cccc(C(F)(F)F)c1)C(F)(F)F` (stereo not shown) [Ia-145] are 100% and “HPLC-MS: logP = 3.69; mass”.
The corresponding values for `NC(=O)c1ccc(/C=C/C(=O)NC(c2cccc(C(F)(F)F)c2)C(F)(F)F)cc1Cl` (stereo not shown) [Ia-157] are 100% and “HPLC-MS: logP = 2.75; mass”.
For `O=C(/C=C/c1ccc(C(=O)NCc2nccs2)c(Cl)c1)NC(c1cccc(C(F)(F)F)c1)C(F)(F)F` (stereo not shown) [Ia-159], in the data set with Boophilus microplus, the “efficacy in % (fertile eggs laid)” value is 100%. In addition, in data set [2] (HPLC-MS), the logP entry was “HPLC-MS: logP = 3.13; mass”.
The corresponding values for `CCOC1(NC(=O)c2ccc(/C=C/C(=O)NC(c3cccc(C(F)(F)F)c3)C(F)(F)F)cc2Br)CC1` (stereo not shown) [Ia-237] are 100% and “HPLC-MS: logP = 3.42; mass”.

The values are drawn from US8889878B2, “Haloalky-substituted amides as insecticides and acaricides” (Bayer CropScience AG, priority 2009, dated 2014).
